# Active and inactive are the calls of the source. No cut-off for these calls is given here.
# Experiments:
# [1] = Binding affinity to oligonucleotide duplex DNA D1 at drug-duplex molar ratio of 2:1 assessed as change in melting temperature by UV melting experiment
# [2] = Binding affinity to oligonucleotide duplex DNA D2a at drug-duplex molar ratio of 2:1 assessed as change in melting temperature by UV melting experiment
# [3] = Binding affinity to oligonucleotide duplex DNA D2b at drug-duplex molar ratio of 2:1 assessed as change in melting temperature by UV melting experiment
# [4] = Binding affinity to oligonucleotide duplex DNA D2c at drug-duplex molar ratio of 2:1 assessed as change in melting temperature by UV melting experiment
# [5] = Binding affinity to oligonucleotide duplex DNA D2e at drug-duplex molar ratio of 2:1 assessed as change in melting temperature by UV melting experiment
# [6] = Binding affinity to oligonucleotide duplex DNA D4 at drug-duplex molar ratio of 2:1 assessed as change in melting temperature by UV melting experiment
# [7] = Binding affinity to oligonucleotide duplex DNA D5 at drug-duplex molar ratio of 2:1 assessed as change in melting temperature by UV melting experiment
# [8] = Binding affinity to oligonucleotide duplex DNA D6 at drug-duplex molar ratio of 2:1 assessed as change in melting temperature by UV melting experiment
# [9] = Binding affinity to oligonucleotide duplex DNA D7 at drug-duplex molar ratio of 2:1 assessed as change in melting temperature by UV melting experiment
# [10] = Binding affinity to oligonucleotide duplex DNA D8 at drug-duplex molar ratio of 2:1 assessed as change in melting temperature by UV melting experiment
# [11] = Binding affinity to oligonucleotide duplex DNA D2a at 10 uM by circular dichroism
# [12] = Binding affinity to oligonucleotide hairpin duplex DNA D2d at 26 uM by UV titration experiment
# [13] = Binding affinity to oligonucleotide hairpin duplex DNA D2d by fluorescence titration experiment
# [14] = Binding affinity to oligonucleotide hairpin duplex DNA D2d by isothermal titration calorimetry
# [15] = Binding affinity to oligonucleotide duplex DNA D3 at drug-duplex molar ratio of 2:1 assessed as change in melting temperature by UV melting experiment
# [16] = Binding affinity to oligonucleotide duplex DNA D2a at 6.6 uM by circular dichroism
SMILES,ΔTm [1],ΔTm [2],ΔTm [3],ΔTm [4],ΔTm [5],ΔTm [6],ΔTm [7],ΔTm [8],ΔTm [9],ΔTm [10],Activity [11],Activity [12],Ka [13],Ka [14],ΔTm [15],Activity [16]
COc1cc2c(cc1OCCCOc1ccc(-c3nc4ccc(N5CCN(C)CC5)cc4[nH]3)cc1)N=C[C@@H]1CCCN1C2=O,10 °C,33 °C,39 °C,9 °C,37 °C,34.3 °C,32.5 °C,34.5 °C,27 °C,0 °C,Active,Active,5.6 ×10⁶ /M,8.9 ×10⁵ /M,–,–
COc1cc2c(cc1OCCCN1CCN(CCN3C(=O)c4cccc5cccc(c45)C3=O)CC1)N=C[C@@H]1CCCN1C2=O,9 °C,34 °C,34.3 °C,6.5 °C,35 °C,36.8 °C,30.3 °C,37.3 °C,31.5 °C,35 °C,–,Active,3.8 ×10⁶ /M,7.8 ×10⁵ /M,39.5 °C,Active

# From ChEMBL document CHEMBL1140847, “Spectroscopic and calorimetric studies on the DNA recognition of pyrrolo[2,1-c][1,4]benzodiazepine hybrids” (Bioorg Med Chem, 2009)
